Measurements from patent US20040204577A1, “Novel peptide-forming enzyme gene” (Ajinomoto Co., Inc., priority 2003, published 2004).
Marks after values point to notes of the source that are not given here. Where a SMILES comes first, the peptide text is derived from it. Where no end group is shown, it is not given here. [ ]: non-standard residue; d: D form. The star is where a group is joined. OtBu = CC(C)(C)O*

Key:
[1] = test system: peptide-forming enzyme (Mono S fraction enzyme); assay: Enzyme substrate specificity (1)-(10), (13), (14): peptide production; assay type: biochemical, Empedobacter brevis; design: key to Produced peptide (oligopeptide): +: those for which production was confirmed but which were unable to be quantified due to the absence of a standard; a trace amount; key to Formed peptide: +: those peptides for which production was confirmed but which were unable to be quantified due to the absence of a standard; a trace amount
Method: Ester specificity was examined in the case of using L-amino acid ester for the carboxy component. 2 μl of the same enzyme fraction as used in Example 5 was added to 100 μl of 100 mM borate buffer (pH 9.0) containing the carboxy components indicated in Table 4 at 100 mM, 200 mM L-glutamine and 10 mM EDTA, and allowed to react at 25° C. for 2 hours. HCl represents hydrochloride in Table 4.
Peptide production was examined in the case of using L-alanine methyl ester for the carboxy component and using various L-amino acids for the amine component.
Peptide production was examined in the case of using various types of L-amino acid methyl esters for the carboxy component and using L-glutamine for the amine component. 2 μl of the same enzyme fraction as used in Example 5 was added to 100 μl of 100 mM borate buffer (pH 9.0) containing the L-amino acid methyl ester hydrochloride salts (AA-OMe.HCl) shown in Table 6 at 100 mM, 150 mM L-glutamine and 10 mM EDTA, and allowed to react at 25° C. for 3 hours. […] Furthermore, Tween-80 was added to the reaction system to a final concentration of 0.1% in the case of using L-Trp-OMe and L-Tyr-OMe.
Peptide production was examined in the case of using various L-amino acid methyl esters for the carboxy component and various L-amino acids for the amine component. 2 μl of the same enzyme fraction as used in Example 5 was added to 100 μl of 100 mM borate buffer (pH 9.0) containing the L-amino acid methyl ester hydrochloride salts (AA-OMe.HCl) shown in Table 7 at 100 mM, the L-amino acids shown in Table 7 at 150 mM and 10 mM EDTA, and allowed to react at 25° C. for 3 hours. The “tr” indicates a trace amount. Furthermore, Tween-80 was added to the reaction system to a final concentration of 0.1% in the case of using L-Trp-OMe.
Peptide production was examined in the case of using the L or D forms of various amino acid methyl esters for the carboxy component, and the L or D forms of various amino acids for the amine component. 2 μl of the same enzyme fraction as used in Example 5 was added to 100 μl of 100 mM borate buffer (pH 9.0) containing the various amino acid methyl ester hydrochloride salts (AA-OMe HCl) shown in Table 8 at 100 mM, the various amino acids shown in Table 8 at 150 mM and 10 mM EDTA, and allowed to react at 25° C. for 3 hours. The “tr” indicates a trace amount.
Peptide production was examined using various L-amino acid amides for the carboxy component, and various L-amino acids for the amine component. 2 μl of the same enzyme fraction as that used in Example 5 was added to 100 μl of 100 mM borate buffer (pH 9.0) containing the L-amino acid amide hydrochloride salt (M-NH2.HCl) shown in Table 9 at 100 mM, the L-amino acids shown in Table 9 at 150 mM and 10 mM EDTA, and allowed to react at 25° C. for 3 hours.
Peptide production was examined in the case of using various L-alanine methyl esters for the carboxy component and C-protected L-amino acids for the amine component. 2 μl of the same enzyme fraction as used in Example 5 was added to 100 μl of 100 mM borate buffer (pH 9.0) containing the L-alanine methyl ester hydrochloride hydrochloride salt (Ala-OMe.HCl) shown in Table 10 at 100 mM, the L-amino acid amide hydrochloride salts shown in Table 10 at 150 mM and 10 mM EDTA, and allowed to react at 25° C. for 3 hours.
Peptide production was examined in the case of using various amino acid methyl esters for the carboxy component and methylamine for the amine component. 2 μl of the same enzyme fraction as used in Example 5 was added to 100 μl of 100 mM borate buffer (pH 9.0) containing the amino acid methyl ester hydrochloride salt (M-OMe.HCl) shown in Table 11 at 100 mM, the methylamine shown in Table 11 at 150 mM and 10 mM EDTA, and allowed to react at 25° C. for 3 hours.
Peptide production was examined in the case of using […] for the carboxy component or β-amino acid for the amine component.

[2] = test system: enzyme derived from Sphingobacterium sp. strain FERM BP-8124 (SP-Sepharose HP fraction enzyme); assay: Enzyme substrate specificity (11), (12): peptide production; assay type: biochemical; settings: carboxy component 100 mM, 0.33 units enzyme, pH 9.0, 25° C., 1.5 hours; for Produced peptide (Table 15-3) / Produced peptide (Table 15-1) / Produced peptide (Table 16, oligopeptide) / Produced peptide (Table 15-4): amine component 150 mM; for Produced peptide (Table 15-2): L-Gln 150 mM; for Produced peptide (Table 15-4): amides and methylamine
Text: Substrate specificity was examined for enzyme derived from Sphingobacterium sp. strain FERM BP-8124 (Depositary institution: the independent administrative corporation, National Institute of Advanced Industrial Science and Technology, International Patent Organism Depositary, Address of depositary institution: Chuo Dai-6, 1-1 Higashi 1-Chome, Tsukuba-shi, Ibaraki-ken, Japan, International deposit date: […] The amounts of various peptides formed in this reaction are shown in Table 15. The “+” mark indicates those peptides for which production was confirmed but which were unable to be quantified due to the absence of a standard, while “tr” indicates a trace amount. Furthermore, Tween-80 was added to the reaction system to a final concentration of 0.1% in the case of using L-Tyr-OMe. In addition, hydrochloride salts were used for all carboxy components. Substrate specificity with respect to oligopeptide production was examined for enzyme derived from Sphingobacterium sp. strain FERM BP-8124 (Depositary institution: the independent administrative corporation, National Institute of Advanced Industrial Science and Technology, International Patent Organism Depositary, Address of depositary institution: Chuo Dai-6, 1-1 Higashi 1-Chome, Tsukuba-shi, Ibaraki-ken, Japan, International deposit date: […] The amounts of each oligopeptide formed in this reaction are shown in Table 16. Furthermore, hydrochloride salts were used for all the carboxy components.

[3] = L-amino acid methyl ester hydrochloride 100 mM, L-amino acid 150 mM, pH 9.0, 25° C., 3 hours
[4] = 100 mM L-alanine methyl ester hydrochloride, L-amino acid 150 mM, pH 9.0, 25° C., 3 hours
[5] = L-amino acid methyl ester hydrochloride 100 mM, 150 mM L-glutamine, pH 9.0, 25° C., 3 hours
[6] = L-amino acid ester 100 mM, peptide (amine component) 150 mM, pH 9.0, 25° C., 3 hours
[7] = L or D amino acid methyl ester hydrochloride 100 mM, L or D amino acid 150 mM, pH 9.0, 25° C., 3 hours
[8] = β-amino acid ester or β-amino acid, carboxy component 100 mM, amine component 150 mM, pH 9.0, 25° C., 3 hours

NCC(=O)N[C@@H](CO)C(=O)O [Gly-L-Ser] (H-Gly-Ser-OH) was tested, and the Formed peptide [1, 3] was 44.2 mM and the “Produced peptide (Table 15-3)” value [2] was 53.8 mM.
For C[C@H](N)C(=O)N[C@@H](Cc1c[nH]c2ccccc12)C(=O)O [L-Ala-L-Trp] (H-Ala-Trp-OH), the Formed peptide [1, 4] was 53.9 mM and the “Produced peptide (Table 15-1)” value [2] was 46.0 mM.
In the case of N[C@@H](CO)C(=O)N[C@@H](Cc1ccccc1)C(=O)O [L-Ser-L-Phe], the Formed peptide [1, 3] is reported as 20.3 mM and the “Produced peptide (Table 15-3)” value [2] is reported as 4.3 mM.
For NCCCC[C@H](NC(=O)CN)C(=O)O [Gly-L-Lys] (H-Gly-Lys-OH), the Formed peptide [1, 3] was 9.8 mM and the “Produced peptide (Table 15-3)” value [2] was 48.2 mM.
NC(=O)CC[C@H](NC(=O)[C@@H](N)CC(=O)O)C(=O)O [α-L-Asp-L-Gln] (H-Asp-Gln-OH) was tested, and the Formed peptide [1, 5] was “tr” and the “Produced peptide (Table 15-2)” value [2] was 0.05 mM.
With CC(C)[C@H](N)C(=O)N[C@@H](Cc1ccccc1)C(=O)O [L-Val-L-Phe] (H-Val-Phe-OH) the Formed peptide [1, 3] was 6.1 mM and the “Produced peptide (Table 15-3)” value [2] was 1.0 mM.
In the case of C[C@H](N)C(=O)N[C@@H](CCC(=O)O)C(=O)O [L-Ala-L-Glu] (H-Ala-Glu-OH), the Formed peptide [1, 4] is reported as 42.9 mM and the “Produced peptide (Table 15-1)” value [2] is reported as 39.1 mM.
For L-Ala-L-Leu-L-Ala, the Produced peptide [1, 6] was 48.3 mM and the “Produced peptide (Table 16, oligopeptide)” value [2] was 40.7 mM.
In the case of CSCC[C@H](NC(=O)[C@@H](N)CO)C(=O)O [L-Ser-L-Met] (H-Ser-Met-OH), the Formed peptide [1, 3] is reported as 12.5 mM and the “Produced peptide (Table 15-3)” value [2] is reported as 7.6 mM.
For C[C@H](N)C(=O)N[C@@H](C)C(=O)O [L-Ala-L-Ala] (H-Ala-Ala-OH), the Formed peptide [1, 4] was 25.4 mM, the Produced peptide [1, 6] was 28.7 mM and the “Produced peptide (Table 15-1)” value [2] was 13.1 mM. For the same molecule, the “Produced peptide (Table 16, oligopeptide)” value [2] was 25.6 mM.
With CC[C@H](C)[C@H](N)C(=O)N[C@@H](CCC(N)=O)C(=O)O [L-Ile-L-Gln] (H-Ile-Gln-OH) the Formed peptide [1, 5] was 8.4 mM and the “Produced peptide (Table 15-2)” value [2] was 6.4 mM.
In the case of Gly-L-Ala-L-Tyr, the Produced peptide [1, 6] is reported as 1.7 mM and the “Produced peptide (Table 16, oligopeptide)” value [2] is reported as 0.6 mM.
With C[C@H](N)C(=O)NCC(N)=O [L-Ala-Gly-NH2] (H-Ala-Gly-NH2) the Formed peptide ([1]; L-alanine methyl ester hydrochloride 100 mM, L-amino acid amide hydrochloride 150 mM, pH 9.0, 25° C., 3 hours) was 7.4 mM and the “Produced peptide (Table 15-4)” value [2] was 15.1 mM.
C[C@@H](N)C(=O)N[C@H](CO)C(=O)O [D-Ala-D-Ser] (H-[dA]-[dS]-OH) was tested, and the Formed peptide [1, 7] was 0.2 mM and the “Produced peptide (Table 15-1)” value [2] was 5.5 mM.
C[C@H](N)C(=O)N1CCC[C@H]1C(=O)O [L-Ala-L-Pro] (H-Ala-Pro-OH) was tested, and the Formed peptide [1, 4] was “tr” and the “Produced peptide (Table 15-1)” value [2] was 1.5 mM.
With CNC(=O)CN [Gly-methylamine] the Formed peptide ([1]; amino acid methyl ester hydrochloride 100 mM, methylamine 150 mM, pH 9.0, 25° C., 3 hours) was 1.1 mM and the “Produced peptide (Table 15-4)” value [2] was 1.0 mM.
In the case of C[C@H](NC(=O)[C@@H](N)[C@@H](C)O)C(=O)O [L-Thr-L-Ala] (H-Thr-Ala-OH), the Formed peptide [1, 3] is reported as 9.4 mM and the “Produced peptide (Table 15-3)” value [2] is reported as 5.8 mM.
In the case of L-Ala-Gly-Gly, the Produced peptide [1, 6] is reported as 41.7 mM and the “Produced peptide (Table 16, oligopeptide)” value [2] is reported as 33.7 mM.
With NC(=O)CC[C@H](NC(=O)[C@@H](N)Cc1ccc(O)cc1)C(=O)O [L-Tyr-L-Gln] (H-Tyr-Gln-OH) the Formed peptide [1, 5] was 3.4 mM and the “Produced peptide (Table 15-2)” value [2] was 0.6 mM.
In the case of CSCC[C@H](N)C(=O)N[C@@H](CO)C(=O)O [L-Met-L-Ser] (H-Met-Ser-OH), the “Produced peptide (Table 15-3)” value [2] is reported as 25.3 mM.
With NC(=O)CC[C@H](NC(=O)[C@@H](N)Cc1ccc([N+](=O)[O-])cc1)C(=O)O [H-p-NO2-Phe-H-Gln-OH] the Produced peptide ([1]; carboxy component 40 mM, amine component 40 mM, 0.1 unit enzyme, 25° C., reaction time 3 hr) was 1.1 mM.
For CC(C)(C)OC(=O)C[C@H](N)C(=O)N[C@@H](CCC(N)=O)C(=O)O [H-Asp(OtBu)-Gln-OH] (H-Asp(OtBu)-Gln-OH), the Produced peptide ([1]; carboxy component 100 mM, amine component 150 mM, 0.1 unit enzyme, 25° C., reaction time 2 hr) was 0.9 mM.
In the case of Gly-Gly-L-Gln, the Produced peptide [1, 6] is reported as 7.2 mM.
With NCC(=O)N[C@@H](CS)C(=O)O [Gly-L-CySH] (H-Gly-Cys-OH) the Formed peptide [1, 3] was 45.6 mM.
NCCC(=O)NC(CO)C(=O)O [β-Ala-L-Ser] was tested, and the Formed peptide [1, 8] was 3.2 mM.
For C[C@H](NC(=O)CCN)C(=O)O [β-Ala-L-α-Ala], the Formed peptide [1, 8] was “tr”.
For CSCC[C@H](NC(=O)[C@@H](N)CCSC)C(=O)O [L-Met-L-Met] (H-Met-Met-OH), the “Produced peptide (Table 15-3)” value [2] was 28.4 mM.
Work on CC(C)[C@@H](N)C(=O)N[C@H](CO)C(=O)O [D-Val-D-Ser] (H-[dV]-[dS]-OH) yielded a Formed peptide [1, 7] of 0.5 mM.
C[C@H](N)C(=O)N[C@@H](Cc1ccc(F)cc1)C(=O)O [H-Ala-p-F-Phe-OH] was tested, and the Produced peptide ([1]; carboxy component 50 mM, amine component 50 mM, 0.1 unit enzyme, 25° C., reaction time 3 hr) was 21.9 mM.
With [dA]-Gly-Phe the “Produced peptide (oligopeptide)” value ([1]; amount of enzyme 0.1 unit, pH 9.0, 25° C., 3 hours) was “Tr”.
Molecule N[C@H](CO)C(=O)N[C@@H](CO)C(=O)O [D-Ser-L-Ser] (H-[dS]-Ser-OH) has a Formed peptide [1, 7] of 3.3 mM.
With L-Ala-L-Ala-L-Ala-L-Ala-L-Ala-L-Ala the Produced peptide ([1]; carboxy component 10 mM, amine component 15 mM (low solubility), pH 9.0, 25° C., 3 hours) was 1.4* mM.
For L-Ala-Gly-Gly-L-Phe-L-Met, the “Produced peptide (oligopeptide)” value ([1]; amount of enzyme 0.2 unit, pH 9.0, 25° C., 3 hours) was “+”.
In the case of L-Tyr-Gly-Gly-L-Phe-L-Met, the “Produced peptide (oligopeptide)” value ([1]; amount of enzyme 1.0 unit, pH 9.0, 25° C., 3 hours) is reported as 2.7 mM.
CC(C)[C@H](N)C(=O)N[C@H](CO)C(=O)O [L-Val-D-Ser] (H-Val-[dS]-OH) showed a Formed peptide [1, 7] of 1.4 mM.
NCCCC[C@H](N)C(=O)N[C@@H](CCC(N)=O)C(=O)O [L-Lys-L-Gln] (H-Lys-Gln-OH) was tested, and the Formed peptide [1, 5] was “+”.
